Experimental findings from ChEMBL document CHEMBL1201862, “PubChem BioAssay data set” (2004) are described below.

The source made the active and inactive calls.

The target in one assay is Prothrombin (Homo sapiens, UniProt P00734). Kind of assay: Thrombin 1536 HTS Dose Response Confirmation. [Related pubchem assays: 1046 (Thrombin 1536 HTS; hits were confirmed in this assay)]. The assay is classed as functional.
In a further assay the target is Melanocortin receptor 4 (Homo sapiens, UniProt P32245). The assay is classed as functional, cell-based.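 Note: Cell-based assay with luminescence read-out, confirmatory dose-response testing for agonist activity of biased ligands at MC4R; human U2OS cells with tagged receptor and beta-arrestin; potency of agonists that increase receptor coupling to beta-arrestin.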
Sequence of Melanocortin receptor 4 (P32245 whole entry): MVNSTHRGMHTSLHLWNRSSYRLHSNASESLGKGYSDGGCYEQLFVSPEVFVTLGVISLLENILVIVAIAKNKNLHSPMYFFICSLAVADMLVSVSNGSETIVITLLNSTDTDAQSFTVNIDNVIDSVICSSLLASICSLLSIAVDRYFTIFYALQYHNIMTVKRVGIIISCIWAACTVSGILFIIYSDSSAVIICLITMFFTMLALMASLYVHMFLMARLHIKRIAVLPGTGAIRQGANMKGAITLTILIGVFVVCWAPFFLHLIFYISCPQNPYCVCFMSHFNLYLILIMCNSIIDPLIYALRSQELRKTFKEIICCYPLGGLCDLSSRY
Assay [1] concerns the target T1, Sentrin-specific protease 8 (Homo sapiens, UniProt Q96LD8).
T1 sequence (Q96LD8 whole entry): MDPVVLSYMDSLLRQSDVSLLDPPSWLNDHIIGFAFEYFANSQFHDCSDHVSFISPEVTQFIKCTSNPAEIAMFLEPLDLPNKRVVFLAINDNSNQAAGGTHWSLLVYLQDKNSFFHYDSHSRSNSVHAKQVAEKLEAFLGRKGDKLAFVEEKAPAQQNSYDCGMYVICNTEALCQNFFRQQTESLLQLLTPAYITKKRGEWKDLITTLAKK
Kind of assay: inhibition of human SENP8 cleavage activity – biochemical, luminescence, SAR follow-up (AID 504501). The assay is classed as functional.

The target in another assay is T2, Caspase-3 (Homo sapiens, UniProt P42574).
T2 sequence (P42574 whole entry): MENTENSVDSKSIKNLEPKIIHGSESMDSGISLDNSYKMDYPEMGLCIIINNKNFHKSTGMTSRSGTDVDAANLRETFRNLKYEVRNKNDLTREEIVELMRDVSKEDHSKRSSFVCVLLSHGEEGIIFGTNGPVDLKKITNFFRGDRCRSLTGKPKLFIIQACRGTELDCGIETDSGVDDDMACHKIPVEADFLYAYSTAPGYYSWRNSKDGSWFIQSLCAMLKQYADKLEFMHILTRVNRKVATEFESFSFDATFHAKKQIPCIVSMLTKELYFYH
As to the kind of experiment: SAR Analysis of small molecule inhibitors of Sentrin-specific proteases (SENPs) using a Caspase-3 Selectivity assay. [Related pubchem assays (depositor defined):AID2540, AID2599, AID434973, AID489001]. The assay is classed as functional.

Assay [2] addresses T3, Sentrin-specific protease 6 (Homo sapiens, UniProt Q9GZR1).
T3 sequence (Q9GZR1 whole entry): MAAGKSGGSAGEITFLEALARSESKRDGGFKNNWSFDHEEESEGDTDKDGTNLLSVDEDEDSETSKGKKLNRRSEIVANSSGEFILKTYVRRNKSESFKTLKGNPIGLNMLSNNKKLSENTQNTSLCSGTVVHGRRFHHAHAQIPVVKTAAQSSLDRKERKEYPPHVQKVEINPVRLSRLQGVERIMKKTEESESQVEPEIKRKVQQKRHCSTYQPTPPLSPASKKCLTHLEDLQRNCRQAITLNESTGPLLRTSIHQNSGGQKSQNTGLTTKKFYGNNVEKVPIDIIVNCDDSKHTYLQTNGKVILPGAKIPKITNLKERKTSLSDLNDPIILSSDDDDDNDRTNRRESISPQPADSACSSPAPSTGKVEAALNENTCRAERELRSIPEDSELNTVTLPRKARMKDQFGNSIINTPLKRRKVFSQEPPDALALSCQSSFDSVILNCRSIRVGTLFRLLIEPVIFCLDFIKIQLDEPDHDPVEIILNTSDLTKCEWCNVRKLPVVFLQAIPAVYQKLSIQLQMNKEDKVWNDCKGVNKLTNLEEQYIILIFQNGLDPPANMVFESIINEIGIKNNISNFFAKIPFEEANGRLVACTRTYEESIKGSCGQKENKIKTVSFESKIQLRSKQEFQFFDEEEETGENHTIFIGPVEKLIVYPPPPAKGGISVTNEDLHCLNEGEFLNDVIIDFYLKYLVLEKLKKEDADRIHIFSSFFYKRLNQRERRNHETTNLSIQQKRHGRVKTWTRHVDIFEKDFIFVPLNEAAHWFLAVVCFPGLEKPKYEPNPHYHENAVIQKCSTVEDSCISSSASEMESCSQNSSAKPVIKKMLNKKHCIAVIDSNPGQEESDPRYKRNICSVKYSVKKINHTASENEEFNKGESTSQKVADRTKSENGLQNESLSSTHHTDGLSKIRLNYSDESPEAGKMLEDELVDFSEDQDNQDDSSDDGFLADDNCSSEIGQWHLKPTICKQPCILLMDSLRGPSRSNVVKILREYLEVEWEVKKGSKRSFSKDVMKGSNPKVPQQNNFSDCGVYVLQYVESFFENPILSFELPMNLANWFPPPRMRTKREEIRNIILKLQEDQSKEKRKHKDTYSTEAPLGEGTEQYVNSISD
As to the kind of experiment: SAR Analysis of small molecule inhibitors of Sentrin-specific protease 6 (SENP6) using a Luminescent assay. [Related pubchem assays (depositor defined):AID2582, AID2599]. The assay is classed as functional.

The target of assay [3] is T4, Sentrin-specific protease 7 (Homo sapiens, UniProt Q9BQF6).
T4 sequence (Q9BQF6 whole entry): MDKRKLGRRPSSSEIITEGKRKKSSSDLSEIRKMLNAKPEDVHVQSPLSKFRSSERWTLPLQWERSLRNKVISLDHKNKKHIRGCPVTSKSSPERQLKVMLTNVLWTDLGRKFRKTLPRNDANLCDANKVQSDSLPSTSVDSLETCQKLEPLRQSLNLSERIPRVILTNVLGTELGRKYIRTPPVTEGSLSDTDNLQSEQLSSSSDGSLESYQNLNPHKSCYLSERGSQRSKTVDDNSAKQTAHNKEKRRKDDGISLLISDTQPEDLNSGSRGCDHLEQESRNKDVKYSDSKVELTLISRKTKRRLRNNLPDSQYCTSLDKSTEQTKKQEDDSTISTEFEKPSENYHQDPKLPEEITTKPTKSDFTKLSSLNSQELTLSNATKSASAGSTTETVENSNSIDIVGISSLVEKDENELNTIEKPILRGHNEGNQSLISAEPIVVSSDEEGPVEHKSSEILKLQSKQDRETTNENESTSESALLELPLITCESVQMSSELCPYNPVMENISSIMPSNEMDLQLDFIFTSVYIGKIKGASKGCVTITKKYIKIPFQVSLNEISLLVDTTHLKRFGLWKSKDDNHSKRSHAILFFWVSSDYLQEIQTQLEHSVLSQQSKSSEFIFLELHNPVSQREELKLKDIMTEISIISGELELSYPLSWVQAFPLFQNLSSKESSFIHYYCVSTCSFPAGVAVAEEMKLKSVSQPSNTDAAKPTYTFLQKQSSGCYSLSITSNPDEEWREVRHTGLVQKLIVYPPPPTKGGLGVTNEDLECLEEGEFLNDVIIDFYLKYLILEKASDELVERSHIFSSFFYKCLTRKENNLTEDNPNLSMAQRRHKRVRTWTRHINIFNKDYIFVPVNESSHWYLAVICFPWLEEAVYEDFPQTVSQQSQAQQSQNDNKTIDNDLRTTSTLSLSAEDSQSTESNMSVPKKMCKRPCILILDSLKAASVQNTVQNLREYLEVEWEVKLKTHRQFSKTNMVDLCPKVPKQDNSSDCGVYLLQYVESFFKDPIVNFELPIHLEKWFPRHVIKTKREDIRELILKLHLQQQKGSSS
Kind of assay: inhibition of human SENP7 cleavage activity – biochemical, luminescence, SAR follow-up (AID 504497). The assay is classed as functional.

The nature of assay [4]: cells. The assay is classed as functional, cell-based.
Assay [5] concerns the target T5, Trace amine-associated receptor 1 (Homo sapiens, UniProt Q96RJ0).
T5 sequence (Q96RJ0 whole entry): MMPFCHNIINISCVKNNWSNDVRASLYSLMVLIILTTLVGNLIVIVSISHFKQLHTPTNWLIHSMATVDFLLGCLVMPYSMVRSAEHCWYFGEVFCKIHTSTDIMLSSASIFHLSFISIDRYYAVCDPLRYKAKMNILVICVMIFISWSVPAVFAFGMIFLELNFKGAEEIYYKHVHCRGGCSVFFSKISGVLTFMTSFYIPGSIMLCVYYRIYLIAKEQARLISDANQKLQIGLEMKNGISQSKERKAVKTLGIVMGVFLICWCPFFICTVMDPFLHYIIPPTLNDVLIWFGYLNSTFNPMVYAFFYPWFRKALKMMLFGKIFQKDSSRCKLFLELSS
Kind of assay: Fluorescence-based cell-based high throughput dose response assay to identify agonists of the human trace amine associated receptor 1 (TAAR1). The assay is classed as functional.

Assay [6] deals with T5, Trace amine-associated receptor 1. As to the kind of experiment: Counterscreen for agonists of the human trace amine associated receptor 1 (hTAAR1): Fluorescence-based cell-based high throughput dose response assay to identify hTAAR1 agonist that also desensitize TAAR1 receptor response. The assay is classed as functional.
Assay [7] can be described thus: cells. The assay is classed as functional, cell-based. This is another data set of the same source.
Assay [8] concerns the target T6, Rac GTPase-activating protein 1 (Homo sapiens, UniProt Q9H0H5).
T6 sequence (Q9H0H5 whole entry): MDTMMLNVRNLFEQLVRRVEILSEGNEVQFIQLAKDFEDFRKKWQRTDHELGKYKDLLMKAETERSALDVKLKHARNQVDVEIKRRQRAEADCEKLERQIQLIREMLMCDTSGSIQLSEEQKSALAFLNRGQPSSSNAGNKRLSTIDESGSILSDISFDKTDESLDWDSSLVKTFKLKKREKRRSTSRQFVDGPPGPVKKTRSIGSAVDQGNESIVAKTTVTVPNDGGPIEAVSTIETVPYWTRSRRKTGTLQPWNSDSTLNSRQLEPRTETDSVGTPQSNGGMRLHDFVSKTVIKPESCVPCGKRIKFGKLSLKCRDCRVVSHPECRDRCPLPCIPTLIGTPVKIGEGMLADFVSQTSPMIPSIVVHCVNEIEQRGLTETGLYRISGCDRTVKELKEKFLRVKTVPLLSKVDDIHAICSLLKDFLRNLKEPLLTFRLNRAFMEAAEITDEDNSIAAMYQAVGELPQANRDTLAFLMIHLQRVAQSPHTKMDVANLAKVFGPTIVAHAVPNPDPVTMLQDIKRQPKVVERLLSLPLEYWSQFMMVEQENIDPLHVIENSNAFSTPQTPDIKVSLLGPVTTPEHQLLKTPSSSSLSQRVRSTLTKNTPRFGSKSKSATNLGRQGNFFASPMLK
As to the kind of experiment: blockers of MgcRacGAP-driven Rac1 GTP hydrolysis – biochemical, ADP Hunter fluorescence, primary and confirmatory, confirmation (AID 624330). The assay is classed as functional.

Another assay deals with Estrogen receptor beta (Homo sapiens, UniProt Q92731).
Sequence of Estrogen receptor beta (Q92731 whole entry): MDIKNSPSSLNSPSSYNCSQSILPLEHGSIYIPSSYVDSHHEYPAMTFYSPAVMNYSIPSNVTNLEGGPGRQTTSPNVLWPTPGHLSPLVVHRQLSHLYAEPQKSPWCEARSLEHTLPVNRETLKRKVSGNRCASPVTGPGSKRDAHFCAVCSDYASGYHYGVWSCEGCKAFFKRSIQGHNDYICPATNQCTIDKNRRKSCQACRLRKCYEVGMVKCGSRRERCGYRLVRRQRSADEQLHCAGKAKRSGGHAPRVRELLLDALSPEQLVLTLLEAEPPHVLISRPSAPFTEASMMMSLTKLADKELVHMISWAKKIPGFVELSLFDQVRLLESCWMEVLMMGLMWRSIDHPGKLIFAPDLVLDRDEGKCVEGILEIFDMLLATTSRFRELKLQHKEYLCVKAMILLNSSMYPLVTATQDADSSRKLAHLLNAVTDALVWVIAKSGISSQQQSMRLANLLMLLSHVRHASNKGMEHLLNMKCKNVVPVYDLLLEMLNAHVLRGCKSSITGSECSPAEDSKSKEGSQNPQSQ

On to `CC(=O)n1nc(-c2ccccc2)nc1NCc1ccc(F)cc1`, for which the 50% inhibitory concentration (IC50) at Prothrombin was 0.0165 µM (active).

In the case of `COc1ccc(-c2cc(NC=O)c3ncc(-c4cccc(C(F)(F)F)c4)n3c2)cc1OC`, the EC50 at Melanocortin receptor 4 was 12.4 µM (inactive).

With `CCOC(=O)c1c(-c2ccc(Br)cc2)csc1NC(=O)C1CC1`, the IC50 (in [1]; on Caspase-3; in [2]; in assay [3]) was > 99 µM (inactive) throughout.

As for `O=C(COC(=O)Cc1ccccc1F)NCCc1ccccc1`, the IC50 was > 29.9 µM (inactive) in “cells [4]” and 2.35 µM (active) in assay [6]. Further, the EC50 in assay [5] was > 9.96 µM (active); in the assay “cells [7]” it was > 29.9 µM (inactive).

Take `O=C(CN1CCc2ccccc2C1)Nc1ccccc1C(F)(F)F`: the figures for the IC50 (in assay [8]; in “cells [4]”; in [6]) were 205 µM (active), > 29.9 µM (inactive) and 11.1 µM (inactive), respectively. Moreover, the EC50 in [5] was 3.55 µM (active); in the assay “cells [7]”, > 29.9 µM (inactive).

Take `Cc1ccccc1-c1nc(-c2ccc(NC(=O)c3ccc(Br)o3)cc2)no1`: the EC50 at Melanocortin receptor 4 is > 89.2 µM (inactive).

For the compound `CS(=O)(=O)c1ccc2nc(NC(=O)c3cccc(NS(=O)(=O)c4ccccc4)c3)sc2c1`, the IC50 (in assay [1]; on Caspase-3; in assay [2]; in [3]) was > 99 µM (inactive) in each case.

As to `C/C(=N\NC(=O)COc1cccc2ccccc12)c1cccs1`, the EC50 on Melanocortin receptor 4 was > 89.2 µM (inactive).

For `Cc1ccc(S(=O)(=O)Nc2ccc3sc(NC(=O)c4ccccc4)nc3c2)cc1`, the IC50 (in assay [1]; at Caspase-3; in assay [2]; in assay [3]) was > 99 µM (inactive) each time.

Take `COc1ccc(CNC(=O)Nc2nc(C(N)Cc3ccc(C(F)(F)F)cc3)cs2)cc1` (stereo unspecified): the EC50 at Melanocortin receptor 4 is > 89.2 µM (inactive).

Turning to `COc1ccc(N/N=C/c2cn(Cc3ccccc3)c3ccccc23)cc1`, the IC50 (in [1]; at Caspase-3; in [2]; in assay [3]) was > 99 µM (inactive) in each case.

Regarding `CCOC(=O)CSc1nnc(NC(=O)c2cc([N+](=O)[O-])cc([N+](=O)[O-])c2)s1`, at Prothrombin, the IC50 is given as > 50 µM (not active).

Take `CCN(CC)S(=O)(=O)c1ccc(C(=O)NCc2ccc(C)cc2)cc1`: the half-inhibitory concentration (IC50) against Estrogen receptor beta is given as > 50 µM (not active).

`CCOC(=O)N[C@H](C(=O)N1CCC[C@H]1C(=O)NCCc1ccccc1Cl)c1ccccc1`: the IC50 in the assay “cells [4]” was > 29.9 µM (inactive); in [6] it was 6.89 µM (active). In addition, the EC50 is 2.06 µM (active) in assay [5] and > 29.9 µM (inactive) in “cells [7]”.

`NNc1nc(Nc2ccccc2)nc(N2CCCCC2)n1`: the IC50 in the assay “cells [4]” is > 29.9 µM (inactive); in assay [6] it was 8.76 µM (active). Moreover, the EC50 was 3.48 µM (active) in assay [5] and > 29.9 µM (inactive) in “cells [7]”.

Regarding `CCOC(=O)c1[nH]c2ccccc2c1NC(=S)Nc1ccccc1`, the 50% inhibitory concentration (IC50) on Prothrombin was 3.09 µM (active); in assay [8], 108 µM (active).

In the case of `Nc1nc(-c2ccccc2)cn1/N=C/c1ccccc1`, the figures for the IC50 (in “cells [4]”; in assay [6]) were > 29.9 µM (inactive) and 8.47 µM (active), respectively. The EC50 is 1.49 µM (active) in assay [5] and > 29.9 µM (inactive) in “cells [7]”.
